# Results: patent publication US12064517B1, “Polymer nanoparticle” (priority 2018, dated 2024)
# Assays:
# [1] = native cyclodextrin; cited from earlier work
# [2] = Encapsulation of purpurin dye in nanogel, aqueous dispersion; type: physicochemical; conditions: 2 mg purpurin, 6 mg PEG diacrylate (MW 1000) β-cyclodextrin crosslinked nanogel, 3 ml di water, stirring overnight
# Experimental: 6 mg of PEG diacrylate (MW 1000) β-cyclodextrin crosslinked nanogel was dispersed in 3 ml of di water, 2 mg of purpurin solid was added to the solution. The resulted mixture was stirring overnight.
# [3] = test system: Human Lung Carcinoma A549; experiment: Cell Titer-Glo Luminescent Cell Viability assay, antiproliferative activity, A549; type: cell-based; conditions: A549 cell line, 72 hours culture with test article, highest concentration 0.4 μM
# Experimental: (§1) The antiproliferative activity was studied against human tumor cell lines, Human Lung Carcinoma A549 and Human Mammary Gland Adenocarcinoma MCF-7 with Promega's Cell Tier-Glo® Luminescent Cell Viability assay.
# (§2) A preliminary cell titration was conducted to select the proper seeding density for the growth of these lines for the relevant time frames.
# (§3) The tumor cells were seeded in a volume of 90 μL/well of growth medium into a white polystyrene 96-well microculture plate (Corning® Costar® 96-well flat bottom plate, Cat #3917). After 24 hours of incubation in a humidified incubator at 37° C., in an atmosphere of 5% CO2 and 95% air, 10 μL of 10 serially diluted test agent in growth medium were added to each well in duplicate (10 points dose response, highest concentration 0.4 μM, with a 1:2 dilution plus untreated control). After 72 hours of culture with test article, in a humidified incubator at the atmosphere of 5% CO2 and 95% air, the plate cells and Cell Titer-Glo® (Promega G7571) reagents were brought to room temperature to equilibrate for 30 minutes. 100 μL of Cell Titer-Glo® (Promega G7571) reagent was added to each well. The plates were shaken for two minutes and then left to equilibrate for ten minutes prior to reading luminescence on the Biotech Synergy II microplate reader. The IC50 results are listed in the following tables and are shown in graphs in FIG. 5 and FIG. 6.
# [4] = test system: Human Mammary Gland Adenocarcinoma MCF-7; experiment: Cell Titer-Glo Luminescent Cell Viability assay, antiproliferative activity, MCF-7; type: cell-based; conditions: MCF7, MCF-7 cell line, 72 hours culture with test article, highest concentration 0.4 μM
# Experimental: as §1, §2, §3
compound,measurement,setting,value
OC[C@H]1O[C@@H]2O[C@H]3[C@H](O)[C@@H](O)[C@@H](O[C@H]4[C@H](O)[C@@H](O)[C@@H](O[C@H]5[C@H](O)[C@@H](O)[C@@H](O[C@H]6[C@H](O)[C@@H](O)[C@@H](O[C@H]7[C@H](O)[C@@H](O)[C@@H](O[C@H]1[C@H](O)[C@H]2O)O[C@@H]7CO)O[C@@H]6CO)O[C@@H]5CO)O[C@@H]4CO)O[C@@H]3CO [α-cyclodextrin],solubility,[1],129.5 g/kg
O=C1c2ccccc2C(=O)c2c(O)c(O)cc(O)c21 [purpurin],Aqueous dispersion of purpurin with nanogel,[2],dispersed in the aqueous as a transparent colloidal solution
"CC(=O)O[C@H]1C(=O)[C@@]2(C)[C@H]([C@H](OC(=O)c3ccccc3)[C@]3(O)C[C@H](OC(=O)[C@H](O)[C@@H](NC(=O)c4ccccc4)c4ccccc4)C(C)=C1C3(C)C)[C@]1(OC(C)=O)CO[C@@H]1C[C@@H]2O [Paclitaxel Control, paclitaxel]",IC50,[3],5.98 nM
same,IC50,[4],1.06 nM
